# pEC50: −log10 of the molar value.
# Tested on: HBV
# Experiment: HBV infection in HepG2-NTCP cells (HBeAg AlphaLISA in supernatants)
# Assay type: cell-based
# Details: Hepatitis B virus, 192 h; HBV infection of HepG2-NTCP cells; HBeAg in supernatants at day 8 post infection; read-out: Cellular EC50
# Outline: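 HepG2-NTCP A3 cells were pre-incubated 2 h with 3-fold serially diluted compounds, then infected with HBV at 2000 GE/cell with 4% PEG (0.5% DMSO final). After washing on day 1, cells stayed in 2.5% DMSO medium; supernatant HBeAg measured by AlphaLISA on day 8, EC50 versus DMSO controls.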
row,Compound,pEC50
1,CC(C)C[C@@H]1CN(c2ccccc2)c2cc(N3CCc4ccccc43)c(-c3ccc(Cl)c(C(=O)O)c3)cc2S(=O)(=O)N1C [Example 551],6.00 to 7.00
2,"CCCC[C@@H]1CN(c2ccccc2)c2cc(C)c(-c3ccc(F)c(C(=O)O)c3)cc2S(=O)(=O)N1C [Example 566, (R)-5-(3-butyl-2,7-dimethyl-1,1-dioxido-5-phenyl-2,3,4,5-tetrahydrobenzo[f][1,2,5]thiadiazepin-8-yl)-2-fluorobenzoic acid]",6.00 to 7.00
3,CN1[C@H](C2CCCCC2)CN(c2ccccc2)c2cc(Cl)c(-c3ccc(NS(=O)(=O)CCc4ccccc4)c(C(=O)O)c3)cc2S1(=O)=O [Example 270],> 7.00
4,Cc1ccc(Cl)c(Oc2cc3c(cc2-c2ccc(F)c(C(=O)O)c2)S(=O)(=O)N(C)[C@H](CC(C)C)CN3c2ccccc2)c1 [Example 436],> 7.00
5,CN1[C@H](C2CCCCC2)CN(c2ccccc2)c2cc(C3CN(C(=O)OC(C)(C)C)C3)c(-c3ccc(F)c(C(=O)O)c3)cc2S1(=O)=O [Example 594],6.00 to 7.00
6,CC(C)C[C@@H]1CN(c2ccccc2)c2cc(-c3cccc4ncoc34)c(-c3ccc(F)c(C(=O)O)c3)cc2S(=O)(=O)N1C [Example 578],6.00 to 7.00
7,CC(C)C[C@@H]1CN(c2ccccc2)c2cc(OC34CC5CC(CC(C5)C3)C4)c(-c3ccc(F)c(C(=O)O)c3)cc2S(=O)(=O)N1C [Example 441],> 7.00
8,CCCC[C@@H]1CN(c2ccccc2)c2cc(Oc3ccccc3Cl)c(-c3ccc(F)c(C(=O)O)c3)cc2S(=O)(=O)N1C [Example 422],6.00 to 7.00
9,CCCC[C@H]1CN(c2ccccc2)c2cc(N3CCCCC3)c(-c3cccc(C(=O)O)c3)cc2S(=O)(=O)N1C [Example 540],< 6.00
10,"CC(C)C[C@@H]1CN(c2ccccc2)c2cc(Cl)c(-c3ccc(N4CCCCC4)c(C(=O)O)c3)cc2S(=O)(=O)N1C [Example 219, (R)-5-(7-chloro-3-isobutyl-2-methyl-1,1-dioxido-5-phenyl-2,3,4,5-tetrahydrobenzo[f][1,2,5]thiadiazepin-8-yl)-2-(piperidin-1-yl)benzoic acid]",< 6.00
11,CCCC[C@@H]1CN(c2ccccc2)c2cc(-n3cncn3)c(-c3ccc(F)c(C(=O)O)c3)cc2S(=O)(=O)N1C [Example 526],> 7.00
12,"CN1[C@H](C2CCCCC2)CN(c2ccccc2)c2cc(Cl)c(-c3cc4c(c(C(=O)O)c3)OCO4)cc2S1(=O)=O [Example 153, (R)-6-(7-chloro-3-cyclohexyl-2-methyl-1,1-dioxido-5-phenyl-2,3,4,5-tetrahydrobenzo[f][1,2,5]thiadiazepin-8-yl)benzo[d][1,3]dioxole-4-carboxylic acid]",> 7.00
13,CN1[C@H](C2CCC(F)(F)CC2)CN(c2ccccc2)c2cc(Cl)c(-c3ccc(F)c(C(=O)O)c3)cc2S1(=O)=O [Example 27],6.00 to 7.00
14,CC(C)C[C@@H]1CN(c2ccccc2)c2cc(Cl)c(-c3cccc(S(=O)(=O)NC(=O)c4ccccc4)c3)cc2S(=O)(=O)N1C [Example 221],6.00 to 7.00
15,"CN1[C@H](C2CCCCC2)CN(c2ccccc2)c2cc(Cl)c(-c3cc(C(=O)O)nn3C)cc2S1(=O)=O [Example 133, (R)-5-(7-chloro-3-cyclohexyl-2-methyl-1,1-dioxido-5-phenyl-2,3,4,5-tetrahydrobenzo[f][1,2,5]thiadiazepin-8-yl)-1-methyl-1H-pyrazole-3-carboxylic acid]",6.00 to 7.00
16,CN1[C@H](C2CCCCC2)CN(c2ccccc2)c2cc(OCc3cncn3C)c(-c3ccc(F)c(C(=O)O)c3)cc2S1(=O)=O [Example 390],< 6.00
17,CN1[C@H](c2cccc(F)c2)CN(c2ccccc2)c2cc(Cl)c(-c3ccc(F)c(C(=O)O)c3)cc2S1(=O)=O [Example 55],6.00 to 7.00
18,CN1[C@H](C2CCCCC2)CN(c2ccccc2)c2cc(Oc3cc(F)cc(F)c3)c(-c3ccc(F)c(C(=O)O)c3)cc2S1(=O)=O [Example 405],> 7.00
19,Cc1cnc(COc2cc3c(cc2-c2ccc(F)c(C(=O)O)c2)S(=O)(=O)N(C)[C@H](C2CCCCC2)CN3c2ccccc2)s1 [Example 342],> 7.00
20,"CN1[C@H](C2CCC2)CN(c2ccccc2)c2cc(Cl)c(-c3ccc(F)c(C(=O)O)c3)cc2S1(=O)=O [Example 80, (R)-5-(7-chloro-3-cyclobutyl-2-methyl-1,1-dioxido-5-phenyl-2,3,4,5-tetrahydrobenzo[f][1,2,5]thiadiazepin-8-yl)-2-fluorobenzoic acid]",> 7.00
21,CN1C(CC2CCCC2)CN(c2ccccc2)c2cc(Cl)c(-c3ccc(F)c(C(=O)O)c3)cc2S1(=O)=O (stereo not drawn) [Example 77],6.00 to 7.00
22,CC(Oc1cc2c(cc1-c1cc(F)c(C(=O)O)s1)S(=O)(=O)N(C)[C@H](C1CCCCC1)CN2c1ccccc1)c1nccs1 (stereo partly drawn) [Example 502],6.00 to 7.00
23,Cc1sc(-c2cc3c(cc2Cl)N(c2ccccc2)C[C@@H](C2CCCCC2)N(C)S3(=O)=O)cc1C(=O)O [Example 122],> 7.00
24,COc1c(F)cccc1Oc1cc2c(cc1-c1ccc(F)c(C(=O)O)c1)S(=O)(=O)N(C)[C@H](C1CCCCC1)CN2c1ccccc1 [Example 407],> 7.00

row,Compound,pEC50
1,CC(C)C[C@@H]1CN(c2ccccc2)c2cc(Oc3cccc(C(F)(F)F)c3)c(-c3ccc(F)c(C(=O)O)c3)cc2S(=O)(=O)N1C [Example 425],> 7.00
2,CC(C)C[C@@H]1CN(c2ccccc2)c2cc(-c3cccnc3)c(-c3ccc(F)c(C(=O)O)c3)cc2S(=O)(=O)N1C [Example 580],> 7.00
3,CN1[C@H](C2CCCCC2)CN(c2ccccc2)c2cc(Cl)c(-c3cccc(C(=O)C(=O)O)c3)cc2S1(=O)=O [Example 207],> 7.00
4,CCCCC[C@@H]1CN(c2ccccc2)c2cc(Cl)c(-c3ccc(F)c(C(=O)O)c3)cc2S(=O)(=O)N1C [Example 70],< 6.00
5,CN1[C@H](C2CCCCC2)CN(c2ccccc2)c2cc(OCCc3ccco3)c(-c3ccc(F)c(C(=O)O)c3)cc2S1(=O)=O [Example 345],> 7.00
6,CN1[C@H](C2CCCCC2)CN(c2ccccc2)c2cc(Cl)c(-c3ccc(NS(=O)(=O)Cc4ccccc4)c(C(=O)O)c3)cc2S1(=O)=O [Example 269],> 7.00
7,CC(C)C[C@@H]1CN(c2ccccc2)c2cc(OC(C)(C)c3ccccc3)c(-c3ccc(Cl)c(C(=O)O)c3)cc2S(=O)(=O)N1C [Example 455],6.00 to 7.00
8,Cc1csc(COc2cc3c(cc2-c2cc(F)c(C(=O)O)s2)S(=O)(=O)N(C)[C@H](C2CCCCC2)CN3c2ccccc2)n1 [Example 501],> 7.00
9,CCCCOc1ccc(N2C[C@@H](C3CCCCC3)N(C)S(=O)(=O)c3cc(-c4ccc(F)c(C(=O)O)c4)c(Cl)cc32)cc1 [Example 311],6.00 to 7.00
10,CN1[C@H](c2ccc(F)cc2)CN(c2ccccc2)c2cc(Cl)c(-c3ccc(F)c(C(=O)O)c3)cc2S1(=O)=O [Example 56],6.00 to 7.00
11,CO[C@H](C)COC(=O)Nc1cc(-c2cc3c(cc2Cl)N(c2ccccc2)C[C@@H](C2CCCCC2)N(C)S3(=O)=O)sc1C(=O)O [Example 259],> 7.00
12,"CN1[C@H](C2CCCCC2)CN(c2ccccc2)c2cc(Cl)c([C@H]3C[C@@H](C(=O)O)C3)cc2S1(=O)=O [Example 607, (1S,3s)-3-((R)-7-chloro-3-cyclohexyl-2-methyl-1,1-dioxido-5-phenyl-2,3,4,5-tetrahydrobenzo[f][1,2,5]thiadiazepin-8-yl)cyclobutane-1-carboxylic acid]",< 6.00
13,C[C@H](OCc1ccccc1)[C@@H]1CN(c2ccccc2)c2cc(Cl)c(-c3ccc(F)c(C(=O)O)c3)cc2S(=O)(=O)N1C [Example 90],6.00 to 7.00
14,CN1C(CC(F)(F)F)CN(c2ccccc2)c2cc(Cl)c(-c3ccc(F)c(C(=O)O)c3)cc2S1(=O)=O (stereo not drawn) [Example 69],< 6.00
15,CCCC[C@@H]1CN(c2ccccc2)c2cc(Oc3cccc(OC)c3)c(-c3ccc(F)c(C(=O)O)c3)cc2S(=O)(=O)N1C [Example 420],6.00 to 7.00
16,"CN1[C@H](C2CCOCC2)CN(c2ccccc2)c2cc(Cl)c(-c3ccc(F)c(C(=O)O)c3)cc2S1(=O)=O [Example 105, (R)-5-(7-chloro-2-methyl-1,1-dioxido-5-phenyl-3-(tetrahydro-2H-pyran-4-yl)-2,3,4,5-tetrahydrobenzo[f][1,2,5]thiadiazepin-8-yl)-2-fluorobenzoic acid]",6.00 to 7.00
17,"CN1[C@H](C2CCCCC2)CN(c2ccccc2)c2cc(Cl)c(-c3ccc(NC(=O)Nc4ccccc4)c(C(=O)O)c3)cc2S1(=O)=O [Example 237, (R)-5-(7-chloro-3-cyclohexyl-2-methyl-1,1-dioxido-5-phenyl-2,3,4,5-tetrahydrobenzo[f][1,2,5]thiadiazepin-8-yl)-2-(3-phenylureido)benzoic acid]",> 7.00
18,"CCCCCCCC[C@@H]1CN(c2ccccc2)c2cc(Cl)c(-c3ccc(F)c(C(=O)O)c3)cc2S(=O)(=O)N1C [Example 82, (R)-5-(7-chloro-2-methyl-3-octyl-1,1-dioxido-5-phenyl-2,3,4,5-tetrahydrobenzo[f][1,2,5]thiadiazepin-8-yl)-2-fluorobenzoic acid]",< 6.00
19,CC(C)C[C@@H]1CN(C(C)C)c2cc(Nc3ccccc3F)c(-c3ccc(F)c(C(=O)O)c3)cc2S(=O)(=O)N1C [Example 561],6.00 to 7.00
20,CN1[C@H](C2CCCCC2)CN(c2ccccc2)c2cc(F)c(-c3ccc(F)c(C(=O)O)c3)cc2S1(=O)=O [Example 176],> 7.00
21,"CN1[C@H](C2CCCCC2)CN(c2ccccc2)c2cc(Oc3ccccc3F)c(-c3ccc(Cl)c(C(=O)O)c3)cc2S1(=O)=O [Example 401, (R)-2-chloro-5-(3-cyclohexyl-7-(2-fluorophenoxy)-2-methyl-1,1-dioxido-5-phenyl-2,3,4,5-tetrahydrobenzo[f][1,2,5]thiadiazepin-8-yl)benzoic acid]",> 7.00
22,CC(C)OCCOC(=O)Nc1cc(-c2cc3c(cc2Cl)N(c2ccccc2)C[C@@H](C2CCCCC2)N(C)S3(=O)=O)sc1C(=O)O [Example 257],> 7.00
23,CC(C)C[C@@H]1CN(c2ccccc2)c2cc(Nc3ccccc3F)c(-c3ccc(Cl)c(C(=O)O)c3)cc2S(=O)(=O)N1C [Example 546],6.00 to 7.00
24,COCCOCCOc1cc2c(cc1-c1cc(F)c(C(=O)O)s1)S(=O)(=O)N(C)[C@H](C1CCCCC1)CN2c1ccccc1 [Example 498],> 7.00
